Measurements from patent publication US9676793B2, “Co-crystals of 5-amino-2-oxothiazolo[4,5-d]pyrimidin-3(2H)-yl-5-hydroxymethyl tetrahydrofuran-3-yl acetate and methods for preparing and using the same” (Hoffmann-La Roche Inc., priority 2014, dated 2017).
Like-named read-outs stand apart in the source and are kept apart here.

Assays:
HBV [1] = assay: microbe, parasite or virus in culture
Procedure: Direct inhibition of viral replication was evaluated by monitoring the levels of secreted HBV DNA and the levels of HBV surface antigen (HBsAg) in cultures containing HBV infected HepaRG cells.
After three days incubation, the combined medium was replaced with differentiation medium and the cells were maintained in the differentiation medium for an additional 2 to 4 weeks. The differentiation medium was renewed every 2 to 3 days throughout the incubation period. Differentiated HepaRG cells (HepaRGd) display hepatocyte-like cell islands surrounded by monolayer of biliary-like cells. Prior to HBV infection and compound treatment, HepaRGd cells were seeded into collagen I coated 96-well plates (Gibco, Cat# A11428-03) at 50,000 to 60,000 cells per well. Cells were allowed to recover their differentiated phenotype in 96-well plates for at least 1 week after plating prior to HBV infection.
HBV inoculum was collected from HepG2.2.15 cultured cells, a cell line that supports HBV (genotype D, strain ayw) replication and virion secretion as disclosed in Sells M A., et al., PNAS, 84(4): 1005-1009. HepG2.2.15 cells were maintained in DMEM+GlutaMAX-I (Invitrogen) containing 1× Pen/Strep (Invitrogen), 10% FBS, and 0.25 mg/ml G-418 (Invitrogen) using hyperflasks (Corning) pre-coated with collagen I (BD Biosciences). Upon reaching confluency, HepG2.2.15 culture media was replaced with DMEM+GlutaMAX-I containing 1× Pen-Strep, 2.5% FBS, and 1% DMSO for 3 days and then replaced with DMEM+GlutaMAX-I containing 1× Pen-Strep and 1% DMSO. The 1% DMSO containing media was collected every 3 to 4 days over a two week period and HBV infectious virions and subviral particles were pelleted by ultracentrifugation through a 20% sucrose cushion in a Ti 45 Beckman rotor at 45,000 rpm for 3 hours at 4° C. The pellets were resuspended in WEM at a concentration of 10^8-10^9 genome equivalents (GE) per ml, determined by real time PCR as described below using a genotype D HBV containing plasmid DNA as an internal standard. To evaluate the infectivity of the inoculum, HepaRGd cells in 96-well plates were infected in differentiation medium containing 50 to 200 GE/cell and 4% PEG 8000 (PolyEthylene Glycol 8000, Sigma, Cat# P5413-500G) for 16 hr at 37° C. At the end of the infection, HBV inoculum was removed and cells were washed 3 times with differentiation medium. Differentiation medium was replenished every 2 to 3 days and HBV replication was monitored by measuring secreted HBV DNA, hepatitis B surface (HBsAg) and/or e (HBeAg) antigens.
HBsAg was detected from 50 μL of HBV infected HepaRG supernatants using the HBsAg chemiluminescence immunoassay (CLIA) kit following instructions as recommended by the manufacturer (Autobio Diagnostics Co., Zhengzhou, China). HBV DNA was extracted from 50 μL of HBV infected HepaRGd supernatants using the MagNA Pure 96 DNA and Viral NA Small Volume Kit (Roche, Cat#05 467 497 001). […] All PCR reactions were performed using the ViiA7 Real Time PCR system (Life Technologies).
Both direct and indirect inhibitory activity of HBV replication was measured. […] Aliquots of these reagents were added to independent wells of a 96-well culture plate containing HBV infected HepaRGd cells on day 4 post infection. The final concentration of DMSO in each well was 2%. The HepaRGd cells used in the inhibition study were maintained in differentiation media containing 2% DMSO.

HBV [2] = assay: Indirect inhibition of HBV replication by conditioned media from stimulated PBMCs; type: cell-based, HBV (genotype D, strain ayw)
Procedure: (§1) TLR-7 agonists stimulate the production cytokines and chemokines from human PBMC's. Conditioned medium was obtained by contacting cultured PBMC's with DMSO (control) or 100 μM R06871765 (drug) was contacted with HBV infected HepaRGd cells.
HBV infected HepaRGd cells were incubated with various dilutions of conditioned media collected from PBMCs isolated from healthy donors—donor 70615 (graphs A-D) and donor 77726 (graphs E, F). The PBMC's from each donor were stimulated with either DMSO (graphs A, C, E) or 100 μM R06871765 (graphs B, D, F). […] Three experiments were performed. In the first experiment (FIGS. 4A, 4B), conditioned media from PBMCs (donor 70615) was first diluted 10-fold using differentiation media, and then serially diluted in 3-fold increments prior to addition of each of the diluted conditioned medium to HBV infected HepaRGd cells. In the second experiment (FIGS. 4C, 4D), conditioned media from PBMCs (donor 70615) was first diluted 5-fold using differentiation media, and then serially diluted in 5-fold increments prior to addition to HBV infected HepaRGd cells. In the third experiment (FIGS. 4E, 4F), conditioned media from PBMCs (donor 77726) was first diluted 5-fold using differentiation media, and then serially diluted in 5-fold increments prior to addition to HBV infected HepaRGd cells. The HBV replication inhibitory activity for control and R06871765 treated cells was determined by monitoring the levels of HBV DNA and HBsAg secreted in culture medium.

human PBMCs = assay: Cytokine profiling of conditioned media from stimulated PBMCs; type: cell-based; settings: no release with DMSO
Procedure: as §1
The anti-viral effect of conditioned medium obtained cultured PBMC's treated with R06871765 most likely is due to the release of cytokines and chemokines from PBMC's.

[3] = conditioned media of PBMCs stimulated with 100 μM
[4] = conditioned media of PBMCs stimulated with 100 μM, Feb. 28, 2013 donor 77726
[5] = conditioned media of PBMCs stimulated with 100 μM, Jan. 3, 2013 donor 70615
[6] = conditioned media of PBMCs stimulated with 100 μM, Nov. 12, 2012 donor 70615
[7] = stimulated PBMC conditioned media

For `Nc1nc2c(sc(=O)n2[C@@H]2O[C@H](CO)C[C@H]2O)c(=O)[nH]1` [R06871765], the EC50 (HBV [1]; Hepatitis B virus, 168 h, read-out: EC50 (HBV DNA or HBsAg)) was over 200 µM, the CC50 (HBV [1]; Hepatitis B virus, read-out: EC/CC50 (μM), HBV DNA) was over 200 µM and the CC50 (HBV [1]; Hepatitis B virus, read-out: EC/CC50 (μM), HBsAg) was over 200 µM. The inhibition at 0.82 µM (HBV [1]; Hepatitis B virus, read-out: HBV DNA (% inhibition), 0.82 μM, EXP ID 10/15/2012 AL) was -1.24%, the inhibition at 0.82 µM (HBV [1]; Hepatitis B virus, read-out: HBV DNA (% inhibition), 0.82 μM, EXP ID 11/1/2012) was 12.2% and the inhibition at 2.47 µM (HBV [1]; Hepatitis B virus, read-out: HBV DNA (% inhibition), 2.47 μM, EXP ID 10/15/2012 AL) was -16%. The inhibition at 2.47 µM (HBV [1]; Hepatitis B virus, read-out: HBV DNA (% inhibition), 2.47 μM, EXP ID 11/1/2012) was -0.77%, the inhibition at 7.41 µM (HBV [1]; Hepatitis B virus, read-out: HBV DNA (% inhibition), 7.41 μM, EXP ID 10/15/2012 AL) was -17.4% and the inhibition at 7.41 µM (HBV [1]; Hepatitis B virus, read-out: HBV DNA (% inhibition), 7.41 μM, EXP ID 11/1/2012) was -23.5%. For the same molecule, the inhibition at 22.22 µM (HBV [1]; Hepatitis B virus, read-out: HBV DNA (% inhibition), 22.22 μM, EXP ID 10/15/2012 AL) was 4.96%, the inhibition at 22.22 µM (HBV [1]; Hepatitis B virus, read-out: HBV DNA (% inhibition), 22.22 μM, EXP ID 11/1/2012) was 5.69% and the inhibition at 66.67 µM (HBV [1]; Hepatitis B virus, read-out: HBV DNA (% inhibition), 66.67 μM, EXP ID 10/15/2012 AL) was -0.65%. For the same molecule, the inhibition at 66.67 µM (HBV [1]; Hepatitis B virus, read-out: HBV DNA (% inhibition), 66.67 μM, EXP ID 11/1/2012) was 21.1%, the inhibition at 200 µM (HBV [1]; Hepatitis B virus, read-out: HBV DNA (% inhibition), 200 μM, EXP ID 10/15/2012 AL) was 12.2% and the inhibition at 200 µM (HBV [1]; Hepatitis B virus, read-out: HBV DNA (% inhibition), 200 μM, EXP ID 11/1/2012) was 3.11%. The inhibition at 0.82 µM (HBV [1]; Hepatitis B virus, read-out: HBsAg (% inhibition), 0.82 μM, EXP ID 10/15/2012 AL) was 10.5%, the inhibition at 0.82 µM (HBV [1]; Hepatitis B virus, read-out: HBsAg (% inhibition), 0.82 μM, EXP ID 10/15/2012 VL) was 14.7% and the inhibition at 0.82 µM (HBV [1]; Hepatitis B virus, read-out: HBsAg (% inhibition), 0.82 μM, EXP ID 11/1/2012) was 14.8%. It also gave an inhibition at 2.47 µM (HBV [1]; Hepatitis B virus, read-out: HBsAg (% inhibition), 2.47 μM, EXP ID 10/15/2012 AL) of -4.7%, an inhibition at 2.47 µM (HBV [1]; Hepatitis B virus, read-out: HBsAg (% inhibition), 2.47 μM, EXP ID 10/15/2012 VL) of 11.8% and an inhibition at 2.47 µM (HBV [1]; Hepatitis B virus, read-out: HBsAg (% inhibition), 2.47 μM, EXP ID 11/1/2012) of 14.7%. It also gave an inhibition at 7.41 µM (HBV [1]; Hepatitis B virus, read-out: HBsAg (% inhibition), 7.41 μM, EXP ID 10/15/2012 AL) of -11.7%, an inhibition at 7.41 µM (HBV [1]; Hepatitis B virus, read-out: HBsAg (% inhibition), 7.41 μM, EXP ID 10/15/2012 VL) of 3.92% and an inhibition at 7.41 µM (HBV [1]; Hepatitis B virus, read-out: HBsAg (% inhibition), 7.41 μM, EXP ID 11/1/2012) of 1.81%. For the same molecule, the inhibition at 22.22 µM (HBV [1]; Hepatitis B virus, read-out: HBsAg (% inhibition), 22.22 μM, EXP ID 10/15/2012 AL) was 0.44%, the inhibition at 22.22 µM (HBV [1]; Hepatitis B virus, read-out: HBsAg (% inhibition), 22.22 μM, EXP ID 10/15/2012 VL) was 3.98% and the inhibition at 22.22 µM (HBV [1]; Hepatitis B virus, read-out: HBsAg (% inhibition), 22.22 μM, EXP ID 11/1/2012) was 0.66%. The inhibition at 66.67 µM (HBV [1]; Hepatitis B virus, read-out: HBsAg (% inhibition), 66.67 μM, EXP ID 10/15/2012 AL) was -2.13%, the inhibition at 66.67 µM (HBV [1]; Hepatitis B virus, read-out: HBsAg (% inhibition), 66.67 μM, EXP ID 10/15/2012 VL) was 14.5% and the inhibition at 66.67 µM (HBV [1]; Hepatitis B virus, read-out: HBsAg (% inhibition), 66.67 μM, EXP ID 11/1/2012) was 5.02%. The inhibition at 200 µM (HBV [1]; Hepatitis B virus, read-out: HBsAg (% inhibition), 200 μM, EXP ID 10/15/2012 AL) was 2.48%, the inhibition at 200 µM (HBV [1]; Hepatitis B virus, read-out: HBsAg (% inhibition), 200 μM, EXP ID 10/15/2012 VL) was 4.25% and the inhibition at 200 µM (HBV [1]; Hepatitis B virus, read-out: HBsAg (% inhibition), 200 μM, EXP ID 11/1/2012) was 16%. For the same molecule, the “direct inhibition of HBV viral replication” value (HBV [1]; cultured HepaRG cells) was “did not exert any direct anti-HBV effect”, the CC50 (HBV [1]; read-out: EC/CC50 (μM), HBV DNA, EXP ID 11/1/2012) was over 200 µM and the CC50 (HBV [1]; read-out: EC/CC50 (μM), HBsAg, EXP ID 10/15/2012 VL) was over 200 µM. The CC50 (HBV [1]; read-out: EC/CC50 (μM), HBsAg, EXP ID 11/1/2012) was over 200 µM, the “EC50 converted fold dilution, HBV DNA secretion” value (HBV [2]; [3]) was 318 fold dilution and the “EC50 converted fold dilution, HBsAg secretion” value (HBV [2]; [3]) was 16 fold dilution. The “EC50 [log dilution], HBV DNA secretion” value (HBV [2]; [4]) was −2.1 log dilution, the “EC50 [log dilution], HBsAg secretion” value (HBV [2]; [4]) was −1.0 log dilution and the “EC50 [log dilution], HBV DNA secretion” value (HBV [2]; [5]) was −2.9 log dilution. For the same molecule, the “EC50 [log dilution], HBsAg secretion” value (HBV [2]; [5]) was −1.4 log dilution, the “EC50 [log dilution], HBV DNA secretion” value (HBV [2]; [6]) was −2.5 log dilution and the “EC50 [log dilution], HBsAg secretion” value (HBV [2]; [6]) was under −1.0 log dilution. The “EC50 [log dilution], HBsAg secretion, Ave ± SD” value (HBV [2]; conditioned media of PBMCs stimulated with 100 μM, average) was −1.2 log dilution, the “EC50 [log dilution], HBV DNA secretion, Ave ± SD” value (HBV [2]; conditioned media of PBMCs stimulated with 100 μM, average of three experiments) was −2.5 ± 0.4 log dilution and the “average EC50 against HBV DNA” value (HBV [2]; [7]) was −2.5±0.4 log10. For the same molecule, the “average EC50 against HBV surface antigen (HBsAg) secretion” value (HBV [2]; [7]) was −1.2 log10 and the “release of IFN-α, IL-6, TNF-α and IP-10 from PBMCs” value (human PBMCs) was “induced release”.
